The values that follow come from patent US20050008684A1, “Method of treatment for acne, rosacea and ulcers with taurolidine and/or taurultam in a pharmaceutical composition” (priority 2003, published 2005).

Data set [1] concerns acne, inflamed lesions in the skin. The data set is described as follows: topical treatment of acne. The class given is in vivo, human.
Another data set relates to skin sensitization. Description: Magnusson & Kligman-Test. Format: in vivo.
For a further data set, the system named is Staphylococcus aureus. The settings on record: cited from earlier work.
For data set [2], the system named is impetiginous atopical eczema on the hands and feet. Description: case treatment of atopic eczema, topical. The class given is in vivo, human. The settings on record: same patient, before taurolidine treatment. On the procedure:
The patient was released with a prescription to apply Triclosan in a Dermatop-base cream upon need. The pustules were treated with methylrosaniline chloride solution. […] Further treatments included application of Dermatop-cream, Polyvidon-Iodine solution, crystal violet solution, and Nystatin-suspension. […] Treatment was then continued for another week at reduced frequency application such as once daily.

As to `O=S1(=O)CCN(CN2CCS(=O)(=O)NC2)CN1` [taurolidine, 4,4′-methylenebis-(1,2,4-thiadiazine-1,1-dioxide)], in data set [1] (2% taurolidine gel or emulsion on skin of affected patient), the “local irritations and/or allergies” value was “no local irritations and/or allergies could be observed”. For the same molecule, the “side effects such as flaking, stinging and itching” value in data set [1] (2% taurolidine gel or emulsion, topical) is “No side effects”. In data set [1] (hydroxyethylcellulose gel (or W/O or O/W emulsion) with 2% taurolidine, several days after application), the “reduction of inflamed lesions in the skin” value is on record as 50%. Further, the sensitization classification result in the data set on skin sensitization was “non-sensitizing agent”. Further, the “minimal threshold of inhibitory concentration” value with Staphylococcus aureus was 0.3 to 0.6 mg/mL.

As for `C[C@]12C=CC(=O)C=C1CC[C@@H]1[C@@H]2[C@@H](O)C[C@@]2(C)[C@H]1CC[C@]2(O)C(=O)CO` [Prednisolon], in data set [2], the “condition under earlier therapy of atopical eczema” value is given as “the atopical eczema was not completely gone”.

For the molecule `COCC1=C(C(=O)O)N2C(=O)[C@@H](NC(=O)/C(=N\OC)c3csc(N)n3)[C@H]2SC1` [Cefpodoxim], the “condition under earlier therapy of atopical eczema” value in data set [2] is reported as “improved somewhat”.
